“Also recorded” adds a separate entry of the source.
Assays:
[1] = target: T1, sodium-dependent vitamin transporters (SMVT) (Homo sapiens, UniProt Q9Y289); conditions: keratinocytes, cited from earlier work; for Ki: read-out: Ki, inhibition of biotin uptake
T1 construct: in keratinocytes, the SMVT transport system; endogenous in cells; host or cells: human keratinocytes
T1 sequence (Q9Y289 1-635): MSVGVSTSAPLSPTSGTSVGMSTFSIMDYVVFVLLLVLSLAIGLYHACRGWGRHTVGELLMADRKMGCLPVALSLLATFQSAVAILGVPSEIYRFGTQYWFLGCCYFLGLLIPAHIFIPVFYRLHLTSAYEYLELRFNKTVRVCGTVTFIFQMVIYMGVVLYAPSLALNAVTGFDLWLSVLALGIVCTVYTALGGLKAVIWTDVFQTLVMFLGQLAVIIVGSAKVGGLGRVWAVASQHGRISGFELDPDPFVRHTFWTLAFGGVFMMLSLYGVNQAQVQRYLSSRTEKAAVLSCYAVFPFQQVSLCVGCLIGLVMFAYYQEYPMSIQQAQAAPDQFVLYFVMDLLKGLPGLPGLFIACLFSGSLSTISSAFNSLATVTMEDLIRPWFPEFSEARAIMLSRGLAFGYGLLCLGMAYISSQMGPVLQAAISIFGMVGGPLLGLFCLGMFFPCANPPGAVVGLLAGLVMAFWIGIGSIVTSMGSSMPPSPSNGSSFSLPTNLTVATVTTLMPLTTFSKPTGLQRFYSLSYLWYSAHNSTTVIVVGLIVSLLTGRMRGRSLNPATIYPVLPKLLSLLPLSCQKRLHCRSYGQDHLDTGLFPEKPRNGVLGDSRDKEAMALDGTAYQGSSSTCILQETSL

[2] = tested on: second biotin transport component; conditions: keratinocytes, cited from earlier work
[3] = tested on: acetyl-CoA carboxylase (EC 6.4.1.2); conditions: intraperitoneal ALA 8.8 mg/kg·day or 31.8 mg/kg·d, rats; wide intragroup variability; cited from earlier work
[4] = oral; cited from earlier work
[5] = intravenous, acute 100 mg/kg dose, rat; cited from earlier work
[6] = oral, chronic daily doses about 30 mg/kg to over 2,000 mg/kg body weight; cited from earlier work
[7] = Short and long-term toxicity studies of ALA (NOAEL); assay type: in vivo
Procedure: Alpha-Lipoic acid is the sole remaining component in the formulation tested in Example 1. The safety and absence of toxicity of ALA has been established in both short and long-term toxicity studies, including in vitro mutagenicity/genotoxicity studies. The no-observed adverse effect level (NOAEL) of ALA is considered to be 60 mg per kg body weight per day. […] Nonetheless, the inventor examined to a number of potential mechanisms of toxicity related to alpha-lipoate.

[8] = target: T2, β-methylcrotonyl-CoA carboxylase (EC 6.4.1.4) (Rattus norvegicus, UniProt Q5I0C3+Q5XIT9); conditions: intraperitoneal ALA 8.8 mg/kg·day or 31.8 mg/kg·d, rats, compared with vehicle controls (P<0.05); cited from earlier work
T2 construct: Lipoic acid reduces the activities of biotin-dependent carboxylases in rat liver; from tissue; host or cells: rat liver
T2 sequence (Q5I0C3 39-715): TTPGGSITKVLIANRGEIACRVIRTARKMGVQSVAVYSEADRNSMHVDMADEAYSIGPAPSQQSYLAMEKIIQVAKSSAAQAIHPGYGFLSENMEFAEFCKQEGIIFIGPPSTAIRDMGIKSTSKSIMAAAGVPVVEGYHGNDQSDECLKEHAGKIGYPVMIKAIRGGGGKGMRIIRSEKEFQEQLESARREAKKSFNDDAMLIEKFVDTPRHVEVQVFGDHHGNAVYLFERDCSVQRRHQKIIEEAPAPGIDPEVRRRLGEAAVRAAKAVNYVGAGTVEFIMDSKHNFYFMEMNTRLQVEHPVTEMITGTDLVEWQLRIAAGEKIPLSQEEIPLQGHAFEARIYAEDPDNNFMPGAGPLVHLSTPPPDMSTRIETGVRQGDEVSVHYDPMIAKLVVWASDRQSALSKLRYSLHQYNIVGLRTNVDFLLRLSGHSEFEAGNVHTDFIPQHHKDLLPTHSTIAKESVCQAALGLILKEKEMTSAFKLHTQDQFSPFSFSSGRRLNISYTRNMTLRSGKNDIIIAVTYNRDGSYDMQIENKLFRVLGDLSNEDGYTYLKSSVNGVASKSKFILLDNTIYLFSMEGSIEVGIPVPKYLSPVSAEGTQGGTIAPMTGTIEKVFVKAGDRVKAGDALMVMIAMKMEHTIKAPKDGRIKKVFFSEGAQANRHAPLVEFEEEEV
T2 sequence (Q5XIT9 23-563): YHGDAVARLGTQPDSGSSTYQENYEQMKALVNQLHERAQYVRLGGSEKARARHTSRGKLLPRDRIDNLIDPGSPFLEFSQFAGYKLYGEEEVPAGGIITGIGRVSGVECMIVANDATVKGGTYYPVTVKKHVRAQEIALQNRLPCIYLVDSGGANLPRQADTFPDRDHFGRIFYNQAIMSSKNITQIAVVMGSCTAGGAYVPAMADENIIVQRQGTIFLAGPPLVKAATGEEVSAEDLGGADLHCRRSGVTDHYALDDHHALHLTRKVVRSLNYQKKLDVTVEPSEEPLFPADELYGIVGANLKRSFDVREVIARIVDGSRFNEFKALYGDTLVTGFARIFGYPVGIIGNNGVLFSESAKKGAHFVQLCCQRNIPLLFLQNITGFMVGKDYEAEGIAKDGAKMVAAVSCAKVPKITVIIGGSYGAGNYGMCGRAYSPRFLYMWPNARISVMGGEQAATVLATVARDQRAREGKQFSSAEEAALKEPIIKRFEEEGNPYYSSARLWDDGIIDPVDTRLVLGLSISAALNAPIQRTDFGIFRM

[9] = target: T3, pyruvate carboxylase (EC 6.4.1.1) (Rattus norvegicus, UniProt P52873); conditions: intraperitoneal ALA 8.8 mg/kg·day or 31.8 mg/kg·d, rats, compared with vehicle controls (P<0.05); cited from earlier work
T3 construct: Lipoic acid reduces the activities of biotin-dependent carboxylases in rat liver; from tissue; host or cells: rat liver
T3 sequence (P52873 21-1178): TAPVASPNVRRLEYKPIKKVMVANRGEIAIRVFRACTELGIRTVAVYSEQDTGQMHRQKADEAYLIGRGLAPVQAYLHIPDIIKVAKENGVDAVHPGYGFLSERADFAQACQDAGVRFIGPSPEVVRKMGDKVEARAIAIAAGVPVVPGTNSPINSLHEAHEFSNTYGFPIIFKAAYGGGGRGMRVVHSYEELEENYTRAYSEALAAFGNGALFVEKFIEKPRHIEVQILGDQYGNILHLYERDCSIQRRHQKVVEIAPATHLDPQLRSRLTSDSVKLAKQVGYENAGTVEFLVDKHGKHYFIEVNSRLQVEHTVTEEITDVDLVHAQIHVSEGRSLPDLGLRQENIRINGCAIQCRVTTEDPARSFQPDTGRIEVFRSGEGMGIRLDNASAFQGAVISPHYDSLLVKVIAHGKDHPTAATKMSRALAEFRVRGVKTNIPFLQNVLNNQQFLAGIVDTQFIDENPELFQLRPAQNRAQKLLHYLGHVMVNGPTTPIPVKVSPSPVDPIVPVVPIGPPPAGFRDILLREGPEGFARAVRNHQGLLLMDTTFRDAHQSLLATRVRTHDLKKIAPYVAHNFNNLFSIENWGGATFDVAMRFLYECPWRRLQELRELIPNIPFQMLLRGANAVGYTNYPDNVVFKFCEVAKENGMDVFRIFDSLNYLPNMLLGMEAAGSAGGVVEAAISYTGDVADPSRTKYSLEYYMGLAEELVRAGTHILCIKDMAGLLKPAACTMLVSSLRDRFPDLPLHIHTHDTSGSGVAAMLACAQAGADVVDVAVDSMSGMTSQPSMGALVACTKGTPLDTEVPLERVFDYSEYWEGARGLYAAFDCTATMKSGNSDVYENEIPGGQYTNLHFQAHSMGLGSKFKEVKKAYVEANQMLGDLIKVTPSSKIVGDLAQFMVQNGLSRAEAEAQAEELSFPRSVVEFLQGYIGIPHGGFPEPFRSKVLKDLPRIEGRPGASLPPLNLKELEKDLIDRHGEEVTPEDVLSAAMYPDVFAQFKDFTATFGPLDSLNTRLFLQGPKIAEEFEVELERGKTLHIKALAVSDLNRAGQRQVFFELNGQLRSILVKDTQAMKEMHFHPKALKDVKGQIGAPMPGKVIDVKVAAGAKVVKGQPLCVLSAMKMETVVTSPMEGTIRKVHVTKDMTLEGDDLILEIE

[10] = cited from earlier work
[11] = in vivo; cited from earlier work
[12] = Physicochemical description
[13] = tested on: mouse model of chronic kidney disease (CKD); assay: Example 1: phosphate binders in diet of LDLR−/− mouse model of CKD; assay type: in vivo; conditions: chronic daily dose of 0.5% or 1.5% (by weight) in the diet, oral
Description: This study critically examined the in vivo efficacy of phosphate binding by a combination of phosphate binders, magnesium R-(+)-α-lipoate and calcium succinate monohydrate, in a mouse model of chronic kidney disease (CKD). The model is partial renal ablation in the LDL receptor-deficient (LDLR−/−) mouse that is fed high fat/cholesterol diets. […] In these animals, CKD causes intensification of vascular calcification (VC).
Materials: Calcium succinate monohydrate (CaSucc) and magnesium R-(+)-α-lipoate (MgRALA) having high purity and freedom from contaminating trace metals were provided by BioLink Life Sciences, Inc. Other chemicals were purchased from Sigma Aldrich Company (St. Louis, Mo.). […]
Two sets of animals in the group receiving magnesium alpha-lipoate were treated according to the protocol. […] Myocardin, Smad6, sm22α, calponin, αSMA, BMP-2, RUNX2/Cbfa1, osteopontin and osteocalcin message levels were measured by real time RT-PCR. Osteocalcin, type 1 collagen and αSMA were determined by immunohistochemistry. MGP levels and specifically γ-carboxylated MGP were determined with a specific antibody. […]
Blood Tests: Serum was analyzed on the day of blood draw for blood urea nitrogen [BUN], cholesterol, calcium, glucose and phosphate by standard autoanalyzer laboratory methods.

In the case of `CC(C)(CO)[C@@H](O)C(=O)NCCC(=O)O` [panthothenic acid], the Ki [1] is listed as 1.2 µM and the “inhibition of second biotin transport component” value [2] is listed as “not inhibited”.

For `O=C(O)CCCCC1CCSS1` (stereo not drawn) [ALA, alpha-lipoic acid], the “decrease of acetyl carboxylase activity” value [3] is listed as at most 43%, the “fraction of orally administered ALA absorbed into cells and the systemic circulation” value [4] is listed as “greater than 90%” and the “time in which most of the orally administered ALA is absorbed” value [4] is listed as “two”. The S-adenosylhomocysteine [5] was “elevated”, the S-adenosylmethionine [5] was “depleted” and the “overt adverse effects in animals” value [6] was “without overt adverse effects”. For the same compound, the “NOAEL equivalent for an adult man” value ([7]; adult man) was 4.2 grams of ALA per day, the “NOAEL equivalent for an adult woman” value ([7]; adult woman) was 3 grams of ALA per day and the Ki [1] was 4.6 µM. The “reduction of β-methylcrotonyl carboxylase activity” value [8] was 28-36%, the “reduction of pyruvate carboxylase activity” value [9] was 28-36% and the “toxicities in human studies” value ([10]; normal subjects and those with chronic kidney disease) was “no significant toxicities have been observed”. For the same compound, the “overt adverse effects in humans” value ([10]; oral, total doses 100 mg to 1800 mg daily for months or years) was “without overt adverse effects; also recorded: no overt adverse effects”, the “inhibition of second biotin transport component” value [2] was “not inhibited” and the “no-observed adverse effect level (NOAEL)” value [11] was 60 mg per kg body weight per day.

In the case of `O=C(O)CCCC[C@@H](S)CCS` (racemic) [dihydrolipoic acid], the Ki [1] is given as 11.4 µM.

With `O=C(O)CCCCC1CCSS1` (stereo not drawn) [Magnesium a-lipoate, magnesium alpha-lipoate] the “stability and hygroscopicity of the powder” value [12] was “stable, non-hygroscopic”.

In the case of `C[C@@H]1NC(=O)N[C@@H]1CCCCCC(=O)O` [desthiobiotin], the Ki [1] is listed as 15.2 µM.

In the case of `O=C(O)CCCC[C@@H]1SC[C@@H]2NC(=O)N[C@@H]21` [biotin, D-biotin], the “Michaelis-Menten constant for biotin” value ([1]; SMVT transport system) is given as 22.7 ± 1.0 µM, the maximal velocity ([1]; SMVT transport system) is given as 163.6±3.5 pmol per five minutes per milligram of protein and the Ki ([2]; read-out: Ki, second biotin transport component, saturable at very low biotin concentrations) is given as 2.6 ± 0.1 nM.

With `O=C(O)CCCC[C@@H]1CCSS1` [magnesium R-(+)-alpha-lipoate, Magnesium R-(+)-alpha-lipoate] the “stability and hygroscopicity of the powder” value [12] was “stable, non-hygroscopic” and the “overt adverse effects (FIG. 1)” value [13] was “hair loss and skin disorders”.
